{"source": "patent US8846671B2", "about": "“Heterocyclic alkynyl benzene compounds and medical compositions and uses thereof” (Guangzhou Institute of Biomedicine and Health, Chinese …, priority 2010, dated 2014)", "origin": "cited, not measured here", "key": {"[1]": {"tested_on": "cells carrying c-KIT D816V", "conditions": "cited from earlier work"}, "BCR-ABL T315I mutant": {"tested_on": "BCR-ABL T315I mutant", "conditions": "cited from earlier work"}}, "note": "Entries after “also recorded” stand apart in the source; their conditions may differ. Where a name gives a salt, the structure may show the parent alone."}
{"smiles": "Cc1cn(-c2cc(NC(=O)c3ccc(C)c(Nc4nccc(-c5cccnc5)n4)c3)cc(C(F)(F)F)c2)cn1", "note": "[AMN107, Nilotinib]", "values": [{"measurement": "effect on cells with c-KIT D816V point mutation", "setting": "[1]", "value": "no effect"}, {"measurement": "effect on BCR-ABL T315I mutant", "setting": "BCR-ABL T315I mutant", "value": "neither AMN107 nor BMS-354825 have effect"}]}
{"smiles": "Cc1ccc(NC(=O)c2ccc(CN3CCN(C)CC3)cc2)cc1Nc1nccc(-c2cccnc2)n1", "note": "[STI571, Imatinib mesylate]", "values": [{"measurement": "effect on cells with c-KIT D816V point mutation", "setting": "[1]", "value": "cannot inhibit proliferation; also recorded: no effect"}]}
